In US10584369B2, “Cell-based methods for measuring activity of a protein inhibitor” (priority 2013, dated 2020):

Legend:
[1] = target: T1, wild-type human CDK3 (Homo sapiens, UniProt Q00526); test: Cell-based assay for CDK3 inhibition: fraction of Tomato+ MDA-MB-157 cells infected with wild-type CDK3-expressing lentivirus
T1 construct: Full-length cDNAs of wild-type human CDK3; expressed in transfected cells; host or cells: MDA-MB-157 breast carcinoma cells, lentiviral vector pHIV-dTomato
Procedure: MDA-MB-157 cells were cultured in RPMI with 10% FBS+PS 1× and Glu 1×.
In the experiment shown in FIG. 2, MDA-MB-157 cells were plated at 10^5 cells per well of a 6-well plate and infected with 1 ml of lentiviral stocks expressing wild-type CDK3 or E195D CDK3 mutant, with 1× polybrene solution. 24 hrs post-infection, the media were changed to virus-free polybrene-free media. 8 days post-infection (FIG. 2) or 23 days post-infection (FIG. 2), the samples were immediately analyzed for Tomato (red fluorescent marker carried in the vector) fluorescence using Becton-Dickinson LSRII flow cytometer. The fraction of the infected cells was defined as the percentage of Tomato+cells.
In this experiment, MDA-MB-157 cells were plated at 5×10^5 cells per P100 plate. Cells were infected with 5 ml of media supernatant containing the wild-type CDK3 lentivirus, with 1× polybrene solution. 24 hrs post-infection, the media were changed to virus-free polybrene-free media. 48 hrs post-infection, cells were replated into 24-well plates, at 25,000 cells per well. The culture media (1 ml volume) in each well contained the CDK3 inhibitor SNX9-1-20 at 2, 1.75, 1.5, 1.25, 1, 0.9, 0.75, 0.5, 0.35, 0.2 and 0 μM (DMSO 0.1%), in duplicates. […] 4′,6-diamidino-2-phenylindole (DAPI) was added to the final concentration of 1 μg/ml and the samples were analyzed for DAPI and Tomato fluorescence using the flow cytometer.

[2] = target: T2, wild-type human CDK2 (Homo sapiens, UniProt P24941); test: Cell-based assay for CDK2 inhibition: fraction of Tomato+ MDA-MB-157 cells infected with wild-type CDK2-expressing lentivirus
T2 construct: Full-length cDNAs of wild-type human CDK2 conjugated with a HA tag; expressed in transfected cells; host or cells: MDA-MB-157 breast carcinoma cells, lentiviral vector pHIV-dTomato
Procedure: MDA-MB-157 cells were cultured in RPMI with 10% FBS+PS 1X and Glu 1X.
In this experiment, MDA-MB-157 cells were plated at 5×10^5 cells per P100 plate. Cells were infected with 5 ml of media supernatant containing the wild-type of both CDK3 and CDK2 lentivirus, with 1 × polybrene solution. 24 hrs post-infection, the media were changed to virus-free polybrene-free media. 48 hrs post-infection, cells were replated into 24-well plates, at 25,000 cells per well. […] On day 5 after plating, the cells were harvested, centrifuged, suspended in RPMI and aliquoted at 200 μl per well into 96-well plates. 4′,6-diamidino-2-phenylindole (DAPI) was added to the final concentration of 1 μg/ml and the samples were analyzed for DAPI and Tomato fluorescence using the flow cytometer.

CC(C)[C@H](CO)Nc1nc(Nc2cccc(Cl)c2)c2ncn(C(C)C)c2n1 [Purvalanol-A, Purvalanol A]
fraction of infected (Tomato+) cells, wild-type CDK3 lentivirus ([1]; 1.6 μM inhibitor, day 5 after plating, Example 2 (without inhibitor: 48.85% SNX9-1-20 experiment, 14.8% Purvalanol-A experiment)): 66.5% | EC50 ([1]; Example 2, FIG. 4 and FIG. 5, day 5, read-out: concentration producing half-maximal effect on the increase in the fraction of cells infected with the wild-type CDK3 lentivirus): 600 nM | fraction of wild-type CDK2 infected (Tomato+) cells ([2]; 1.6 μM inhibitor, day 5 after plating, 25.5% in the absence of inhibitor, FIG. 5): 65.25% | EC50 ([2]; Example 2, FIG. 5, day 5, read-out: concentration producing half-maximal effect on the increase in the fraction of infected cells (printed: wild-type CDK3 lentivirus; follows the CDK2 result)): 200 nM
